Data published in patent US10654834B2 (Venenum Biodesign, LLC, priority 2016, dated 2020).
Where two headings read alike, the source gives them in different places.

How the values were obtained:
Format in all cases: in vivo, mouse
[1] = Bile weight in lean C57BL/6N mice after OGTT; conditions: 30 mg/kg + sitagliptin 3 mg/kg p.o., 6 h, versus sitagliptin alone
Procedure: In addition, bile weight was determined in the OGTT study on lean mice described in Example 84 above. At the end of that study, bile was removed from the gallbladder and weighed to approximate volume of bile contained within the gallbladder.
FIG. 7 depicts bile weight in DIO mice at 6, 12, 18, and 24 hours after oral administration of 10 mg/kg sitagliptin alone or 10 mg/kg sitagliptin+30 mg/kg Compound 268. FIG. 8 depicts the comparison in bile weight between sitagliptin (3 mg/kg, p.o.) and Compound 268 (30 mg/kg, p.o.)+sitagliptin (3 mg/kg, p.o.) following an OGTT assay in lean C57BL/6N mice, 6 hours after treatment. FIG. 9 illustrates plasma GLP-1 levels from the DIO mice at the same time points.

[2] = Plasma concentrations after chronic dosing (5 days) in DIO mice; conditions: after second and tenth dose, 0-12 h
Procedure: Plasma Concentrations after Chronic Dosing of Compound
In the study, the plasma level of compounds of the present invention (i.e., Compound 268) was monitored at day 1 and day 5. The same animal protocol as described in Examples 87 and 88 was utilized.
FIG. 14 depicts the plasma concentration of Compound 268 at 0, 3, 6, 9, and 12 hours after the second and at 3, 6, 9, and 12 hours after the tenth dose. […] No significant increases were observed over time.

[3] = Comparison of PK in DIO mice and lean mice; conditions: for Cmax / AUC(0-t) / Tmax: mouse, plasma; for AUC(0-t): read-out: AUC (0→4 h)
Procedure: Comparison of PK in DIO Mice and Lean Mice
The PK characteristics of Compound 268 were examined in non-fasted lean C57BL/6N and DIO mice (Taconic). Compound 268 was orally administered to both groups at 10 mg/kg by oral gavage and plasma concentration of the compound was determined as described in Example 81.
In addition, PK parameters were determined for Compound 268 (i.e., Cmax, Tmax, and AUC) following oral administration in four groups of mice: (i) fasted lean mice; (ii) non-fasted lean mice; (iii) non-fasted DIO mice; and (iv) lean mice receiving ABT.
The ABT treatment confirms that the low Cmax value of Compound 268 is attributed to […].

[4] = Body weight over 6 weeks of BID dosing in DIO mice; conditions: 30 mg/kg BID p.o.
Procedure: Monitoring of Weight Loss after Multiple Weeks of Dosing Compounds
Compounds of the present invention were dosed for multiple weeks and were evaluated for their ability to cause mice to lose weight.
(§1) In the next series of studies (Examples 93-99), Male DIO mice were received at 12 weeks of age (from Taconic), and were single-housed at the testing facility and acclimated for at least 2 weeks. The mice were provided a high fat diet [Research Diet D12492 (60% Fat kcal)] while in the testing facility. Before the study initiation, the animals were randomized into 5 experimental groups by body weight. The vehicle group contained only 0.5% carboxymethylcellulose (medium viscosity)+0.25% Tween-80. The second group contained 10 mg/kg of the DPP-IV inhibitor Sitagliptin while the third group contained 30 mg/kg Compound 268. The fourth group contained the combination of 10 mg/kg Sitagliptin and 30 mg/kg Compound 268. The fifth group was the positive control for weight loss, Rimonabant. All mice were dosed BID at approximately 6:00 am and again at approximately 4:00 pm. The positive control rimonabant was administered at a dose of 10 mg/kg in the afternoon and the morning dosing was vehicle (no compound).
Compounds of the present invention were evaluated for their ability to cause mice to lose weight. Mice were dosed compounds for 6 weeks and body weights were recorded twice a week.

[5] = Food intake over multiple weeks of dosing in DIO mice; conditions: 30 mg/kg BID p.o., 6 weeks
Description: as §1, with “compound). […]” for “compound).”
Compounds of the present invention were dosed for multiple weeks and were evaluated for their ability to cause mice to have a lower food intake. […]
The HFD (Research Diets, D12492, 60% fat kcal) was placed at the bottom of the cage on a singly-housed animal. […] Daily food intake is calculated by averaging over a 3 or 4 day period every week.

[6] = 6-week DEXA body composition analysis in DIO mice; conditions: 6 weeks BID dosing
Description: as §1
6-Week Dexa Analysis after Multiple Weeks of Dosing Compounds
Compounds of the present invention were dosed for multiple weeks and the mice were analyzed to determine whether weight loss seen in Example 93 was due to a loss in fat or lean mass.
In this example, the protocol from Example 93 was utilized. The day of experiment, the mice were anesthetized using 2.5% avertin [tert-amyl alcohol (Aldrich #15,256-3) and 2,2,2-tribromoethanol (Aldrich # T4, 840-2)]. Their body composition was assessed using the PIXImus2 X-ray unit (GE Lunar Corporation, Madison, Wis.) connected to a computer equipped with LUNAR PIXImus2 software. The head region of each mouse was excluded from the analysis. The following measurements were automatically measured or calculated by the PIXImus2 software: bone mineral density (BMD), bone mineral content (BMC), bone area (B Area), tissue area (T Area), percent fat, and total tissue mass (TTM). Fat mass, the percentage of lean mass, and lean mass, were calculated manually as follows: % Lean=100−% Fat Lean Mass=TTM×(100−% Fat) Fat Mass=TTM×% Fat

[7] = C57BL/6N, po, 10 mg/kg, Non-fasted DIO mice, oral (Table 58)
[8] = C57BL/6N, po, 10 mg/kg, Non-fasted Lean mice, oral (Table 58)
[9] = po, 10 mg/kg, Fasted Lean mice, oral (Table 58)
[10] = po, 10 mg/kg, lean mice receiving ABT (150 mg/kg), oral (Table 58)

For `N#Cc1ccc(CCNC(=O)[C@@H]2CCN2c2cc(N3CCC(CCNC(=O)NCCC(=O)O)CC3)nc(C(F)(F)F)n2)cc1` [Compound 268, (S)-3-(3-(2-(1-(6-(2-((4-cyanophenethyl)carbamoyl)azetidin-1-yl)-2-(trifluoromethyl)pyrimidin-4-yl)piperidin-4-yl)ethyl)ureido)propanoic acid], the bile weight [1] was “no significant differences in bile weight”, the “plasma level of compound after chronic dosing” value [2] was “maintained at a low concentration level” and the Cmax ([3]; C57BL/6N, po, 10 mg/kg, DIO mice, Non-fasted PK, p.o. (Table 57)) was 0.6 nM. For the same compound, the Cmax ([3]; C57BL/6N, po, 10 mg/kg, Lean mice, Non-fasted PK, p.o. (Table 57)) was 2.1 nM, the Cmax [3, 7] was 0.57 nM and the AUC(0-t) [3, 7] was 0.76 ng·h/mL. The Cmax [3, 8] was 2.1 nM, the AUC(0-t) [3, 8] was 2.9 ng·h/mL and the Tmax ([3]; C57BL/6N, po, DIO mice, Non-fasted PK, 10 mg/kg, p.o. (Table 57)) was 60 min. The Tmax ([3]; 10 mg/kg, Fasted Lean mice, oral (Table 58)) was 15 min, the Cmax [3, 9] was 12 nM and the AUC(0-t) [3, 9] was 18 ng·h/mL. For the same compound, the Cmax [3, 10] was 4.2 nM, the AUC(0-t) [3, 10] was 5.1 ng·h/mL and the Tmax ([3]; lean mice receiving ABT (150 mg/kg), oral (Table 58)) was 30 min. For the same compound, the “Cmax profile in fasted lean, non-fasted lean, non-fasted DIO mice” value ([3]; oral administration) was “low Cmax profile”, the body weight change [4] was “modest weight loss” and the food intake [5] was “minor, but steady effect on food intake”. For the same compound, the “fat mass versus lean mass (DEXA)” value [6] was “due to a loss in the Fat Mass” and the “loss in weight / total tissue mass (DEXA)” value [6] was “about the same loss in weight”.
